Values joined by “and” are separate entries in the source; they are usually repeats but may differ in a detail not shown here. Equal entries are not always repeated. Each block holds one compound with its values, some of them ahead of it.
Experiments:
Assay type in all cases: biochemical
[1] = biological target: T1, β-glucosidase from Agrobacterium sp. (Agrobacterium sp., UniProt P12614); test: Oligomerization of compound V with β-glucosidase
T1 construct: purchased Megazyme
T1 sequence (P12614 1-459): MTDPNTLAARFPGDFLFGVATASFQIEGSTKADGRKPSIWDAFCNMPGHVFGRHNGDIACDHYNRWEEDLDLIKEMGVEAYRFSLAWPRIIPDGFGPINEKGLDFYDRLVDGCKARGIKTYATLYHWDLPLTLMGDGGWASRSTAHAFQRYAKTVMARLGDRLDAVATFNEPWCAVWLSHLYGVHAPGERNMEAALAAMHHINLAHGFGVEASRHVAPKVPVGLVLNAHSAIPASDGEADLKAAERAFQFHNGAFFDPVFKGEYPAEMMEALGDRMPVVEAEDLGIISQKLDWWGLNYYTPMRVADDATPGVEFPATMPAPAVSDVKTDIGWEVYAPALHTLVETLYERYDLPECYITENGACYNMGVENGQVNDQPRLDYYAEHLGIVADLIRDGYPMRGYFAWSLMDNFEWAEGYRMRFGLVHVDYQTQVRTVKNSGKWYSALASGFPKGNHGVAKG
Procedure: The oligomerization of compound V was examined by treatment with the enzyme […]-glucosidase. The reaction mixture contained 50 μM of compound V and 200 nM of β-glucosidase (250-fold ratio). The reaction mixture was only faintly blue but upon centrifugation after 5 h of incubation, a blue precipitate was obtained. According to the colors of samples (FIG. 13, panel A), the yield of precipitate is low by comparison with our previously reported enzyme-substrate pairs (see Example 1). Multiple additions of enzyme (4×0.20 μM of enzyme stock, every 2 h) and longer incubation times (10 h or 24 h) were also tested but no increase in solution intensity or precipitate was observed. For the samples after 300 min of incubation, the precipitates suspended in H2O were screened by optical microscopy (FIG. 13, panel B) and DLS (FIG. 13, panel C). The size of aggregates is between 100 and 1000 nm as measured by DLS, which is consistent with the images obtained by optical microscopy (˜1 μm).
Quantitation of the indigogenic compounds in the precipitate and supernatant was carried out by absorption spectroscopy and multicomponent analysis (MCA) (M. Taniguchi, et al., Photochem. Photobiol., 2018, 94, 277-289) (FIG. 13, panels D and E). MCA analysis is essential due to the overlaid spectra of indigo and coumarin at 362 nm, the peak wavelength for the coumarin. Spectral deconvolution relied on knowledge of the molar absorption coefficient at 362 nm of coumarin (εcou362=2.0×10^4 M^−1 cm^−1 measured in DMF) and indigo model compound F19 (see Example 1 where F-19 is compound 43) shown in Chart 2 (εind362=0.81×10^4 M^−1 cm^−1 measured in DMSO/H2O, v/v=2/1); and the molar absorption coefficient of F19 at 630 nm (εind630=2.6×10^4 M^[…] cm^−1, measured in DMSO/H2O, v/v=2/1). The residual upon MCA was smaller than any of the components, as required for accurate analysis (Y. Mang, et al., Phytochem. Anal., 2018, 29, 205-216). In this manner, the precipitate is composed of 51.6 nmol of coumarin and 2.8 nmol of indigoid dye; the supernatant is composed of 11.1 nmol of coumarin and 0.3 nmol of indigoid dye.
Materials. DMF (HPLC grade) was purchased from Alfa Aesar. H2O (molecular biology grade) for buffer preparation was purchased from Millipore Sigma. Compound V (5.6 mg) was dissolved in DMF (26 μL) to prepare 100 mM stock solution. Pi buffer was prepared freshly at 10 mM, pH 7. The enzyme β-glucosidase from Agrobacterium sp. was purchased from MegaZyme and was dissolved in Pi buffer at 10 μM to prepare the stock solution.
To screen the oligomerization procedure of compound V, samples of Pi buffer (1859 μL), DMF (100 μL), β-glucosidase stock (40 μL) and compound V stock (1 μL) were mixed in a 2-mL Eppendorf tube. The resulting mixed sample (2.0 mL) contains 50 μM of compound V as the substrate and 0.20 μM of β-glucosidase as the enzyme. Three identical samples were prepared for different assays. For a control sample, 40 μL of Pi buffer was added as a replacement for the β-glucosidase stock solution. The tubes were incubated at 37° C. for 5 h, and pictures of the tubes were captured at 0, 15, 30, 60, 120, 180 and 300 min. After 300 min, the tubes were centrifuged at 20,000×g for 10 min to isolate any precipitate from the supernatant. No precipitate formed in the control sample.
Three samples were treated differently for three assays: (1) for sample 1, the precipitate was dissolved in 100 μL of DMF for absorption screening; (2) for sample 2, the precipitate was suspended in 100 μL of H2O for microscopic imaging; and (3) for sample 3, the precipitate was suspended in 1000 μL of H2O for dynamic light scattering (DLS) assay. The supernatant of sample 1 was freeze-dried under high vacuum and afterwards dissolved in 100 μL of DMF for absorption screening. The absorption spectra of the precipitates and supernatants were employed for quantitation of indigo and coumarin. […]

tritosomes = test: Indigoid dye formation with tritosomes; details: result in words
Procedure: The results from the glucosidase survey prompted several further experiments. First, a parallel set of studies was carried out with inclusion of several oxidants commonly employed in histochemical studies, given that the indigoid dye forming process requires the presence of an oxidant. […] The activity of the β-glucosidase was affected only slightly in the presence of a non-ionic detergent. To verify that the results observed in Table 1 were reliable, a 5-mg scale reaction of 33 was carried out to isolate indigo 43, which was obtained in 66% yield (Scheme 7). The 66% isolated yield corresponded well with the enzymatic yield of […] (Table 1, entry 15).
General methods. β-Glucosidase from almonds (lyophilized powder, ≥2 units/mg solid) and peroxidase from horseradish were purchased from Sigma-Aldrich. β-Glucosidase from Agrobacterium sp. (recombinant, suspension in 3.2 M (NH4)2SO4) was purchased from Megazyme; the concentration in solution was determined by absorption spectroscopy with E^0.1%=2.20 cm^−1 at 280 nm.^37 Tritosomes were purchased from XenoTech. Rat liver homogenate was purchased from MP Biomedicals.

[2] = system: β-glucosidase from almonds; test: Indigogenic reaction with β-glucosidase from almonds
[3] = biological target: T2, β-glucosidase from Agrobacterium (Agrobacterium sp., UniProt P12614); test: Indigogenic reaction with β-glucosidase from Agrobacterium
T2 construct: purchased Megazyme
T2 sequence (P12614 1-459): T1 sequence (P12614 1-459)
Procedure: Next, the β-glucosidase from Agrobacterium sp. was investigated as the trigger enzyme for indigoid dye formation. […] The reaction was carried out using the enzyme (200 nM) and indoxyl-glucoside 33 (100 μM) in phosphate buffer (pH 4-9, containing 2% DMF) at 37° C. […] Note that with 200 nM enzyme and 100 μM substrate, complete reaction requires 500 turnovers of each enzyme.
Reactions with β-glucosidase from Agrobacterium. An indoxyl compound in DMF (2 μL, 5 mM) and β-glucosidase from Agrobacterium in 10 mM phosphate buffer [2 μL, 10 μM, pH 7.0, containing 50 mM NaCl and 0.6 M (NH4)2SO4] were mixed with 50 mM phosphate buffer (96 μL, pH 7.0). The reaction mixture was incubated at 37° C. for 2 h and then centrifuged for 3 min. Any precipitate was separated from the supernatant and dissolved in DMF (200 μL). The resulting solution was analyzed by absorption spectroscopy. The experiment was repeated three times.

[4] = biological target: T2, β-glucosidase from Agrobacterium; test: Enzyme-triggered oligomerization of bis(indoxyl-glucoside) 46
Procedure: Oligomerization of 46 was carried out by treatment with β-glucosidase from Agrobacterium (200 nM) in 10 mM phosphate buffer (pH 7) at 37° C. for 2-4 h (Scheme 9). Precipitation occurred during the reaction. After centrifugation, the precipitate was separated from the supernatant, washed with H2O, and dried to afford a blue solid.
The efficacy of the indigogenic oligomerization was examined under a variety of conditions. As shown in entries 1-4 in Table 2, the yield of indigoid dye in the supernatant versus precipitate reversed as the concentration of 46 was decreased from 300 to 10 μM, although the total yields were in the range 17-29%. While the reactions in entries 1-4 were carried out in phosphate buffer containing NaCl (0.05 M), those of entries 5 and 6 (with 300 and 50 μM of 46, respectively) were conducted in NaCl-free phosphate buffer. The use of NaCl-free phosphate buffer facilitated extraction of the indigoid dye in the supernatant for analysis.
The time course of the oligomerization was examined under the reaction conditions listed in entry 5 of Table 2, with 300 μM of 46. Noticeable changes include observation of blue clouding and color deepening at 20 min. Centrifugation enabled isolation of the precipitate. […] The absorption spectrum of the precipitate was examined in DMF/DMSO (9:1) and compared with that of the extracted supernatant (in DMF) and 43 (in DMF) (FIG. 10D). […] Size-exclusion chromatography (SEC) [DMF/DMSO (9:1) as eluent] was applied to the precipitate and to the supernatant extract prepared from 300 μM of 46 (FIG. 10E). The first peak appeared at 18-20 min, and then the second peak at 38.5 min. The ratio of peak areas in the supernatant extract was 11:89, whereas that in the precipitate was 93:7. On the basis of a calibration curve prepared with poly(2-vinylpyridine) standards, the molecular size for the first and second peaks was expected to be >265 and <1 kDa, respectively. The large molecular size indicated for the first peak likely implies aggregation or assembly of the oligomers. The chromatograms for the samples prepared with 50 μM of 46 gave similar results but with higher purity compared with those at higher concentration.

[5] = 100 nmol compound V added, absorption spectroscopy and MCA
[6] = absorption spectroscopy and MCA
[7] = indoxyl 1 mM, enzyme 1 unit/mL, 0.01M acetate buffer pH 5, 5% DMF, 37° C., 16-19 h, ϵ = 1.27 × 10^4 M^−1 cm^−1 measured for 4

Compound: 2,4-Bis[1-(3-(β-D-glucopyranosyloxy)-4,6-dibromo-1H-indol-5-yl)-1,4,7,10-tetraoxadec-10-yl]-6-[14-(3-(2-(1-azido-3,6,9,12,15-pentaoxoheptadecylamino)-4-[12-((4-methyl-2H-chromen-2-one-7-yl)amino)ethylamino]-1,3,5-triazin-6-yloxy)propyl)-4-(3-sulfopropyl)piperazin-1-yl]-1,3,5-triazine [Compound V]
Indigoid dye in the precipitate [1, 5]: 2.8 nmol
Indigoid dye in the supernatant [1, 5]: 0.3 nmol
Yield of indigoid dye (total) ([1]; 50 μM compound V, 200 nM β-glucosidase, 37° C., 5 h, MCA): 3.1%
Coumarin in the precipitate [1, 6]: 51.6 nmol
Coumarin in the supernatant [1, 6]: 11.1 nmol
Size of aggregates (optical microscopy) ([1]; precipitate after 300 min suspended in H2O): ~1 μm
Total quantity of indigoid dye ([1]; precipitate plus supernatant): 3.1 nmol
Total amount of coumarin calculated by MCA ([1]; precipitate plus supernatant, 100 nmol compound V added): 62.7 nmol

Compound: 5-[(Benzylcarbamoyl)oxy)]-1H-indole-3-yl β-D-glucopyranoside [Compound 16]
Indigoid dye formation with tritosomes (tritosomes): low yield
Yield (%) β-glucosidase from almonds [2, 7]: 24%

Compound: 5-bromo-4-chloroindoxyl β-glucoside [Compound 42, reference compound]
Yield (%) β-glucosidase from almonds ([2]; as E1 but ϵ = 2.00 × 10^4 M^−1 cm^−1 reported for 5,5′-dibromo-4,4′-dichloroindigo): 74% and 74^e %

Compound: 5-{[(1R,8S,9s)-Bicyclo[6.1.0]non-4-yn-9-yl]methoxy}-4,6-dibromo-1H-indole-3-yl β-D-glucopyranoside [Compound 30]
Yield (%) β-glucosidase from Agrobacterium ([3]; as E4 but ϵ = 2.6 × 10^4 M^−1 cm^−1 measured for 43): 10% and 10 ± 0.4%
Yield (%) β-glucosidase from Agrobacterium ([3]; indoxyl 100 μM, enzyme 200 nM, 0.05M phosphate buffer pH 7.0, 2% DMF, 37° C., 2 h, n=3, ϵ = 1.27 × 10^4 M^−1 cm^−1): 21 ± 1%

Yield (%) β-glucosidase from almonds [2, 7]: <1%
Compound: COC(=O)COc1ccc2[nH]cc(O[C@@H]3O[C@H](CO)[C@@H](O)[C@H](O)[C@H]3O)c2c1 [Compound 22, 5-(Methoxycarbonyl)methoxy-1H-indol-3-yl β-D-glucopyranoside]

Yield (%) β-glucosidase from almonds [2, 7]: 68%
Compound: COC(=O)COc1ccc2[nH]cc(O[C@@H]3O[C@H](CO)[C@@H](O)[C@H](O)[C@H]3O)c2c1Br [Compound 23, 4-Bromo-5-(methoxycarbonyl)methoxy-1H-indol-3-yl β-D-glucopyranoside]

Yield (%) β-glucosidase from almonds [2, 7]: <5%
Compound: C#CCOc1ccc2[nH]cc(O[C@@H]3O[C@H](CO)[C@@H](O)[C@H](O)[C@H]3O)c2c1 [Compound 25, 5-Propargyloxy-1H-indol-3-yl β-D-glucopyranoside]

Yield (%) β-glucosidase from almonds [2, 7]: 56%
Compound: C#CCOc1ccc2[nH]cc(O[C@@H]3O[C@H](CO)[C@@H](O)[C@H](O)[C@H]3O)c2c1Br [Compound 26, 4-Bromo-5-propargyloxy-1H-indol-3-yl β-D-glucopyranoside]

Compound: O=S(=O)([O-])CCC[N+]1(CCCO)CCN(c2nc(OCCOCCOCCOc3c(Br)cc4[nH]cc(O[C@@H]5O[C@H](CO)[C@@H](O)[C@H](O)[C@H]5O)c4c3Br)nc(OCCOCCOCCOc3c(Br)cc4[nH]cc(O[C@@H]5O[C@H](CO)[C@@H](O)[C@H](O)[C@H]5O)c4c3Br)n2)CC1 [Compound 46]
Total yield of indigoid dye (supernatant plus precipitate) ([4]; entries 1-4 of Table 2, [46] 300 to 10 μM): 17-29%
Yield of indigoid dye (%) supernatant ([4]; entry 1: [46] 300 μM, 2 h, phosphate buffer containing NaCl (0.05M), ε = 2.6 × 10^4): 6%
Yield of precipitate based on the monomer formula weight ([4]; larger scale (7.87 mg), conditions of entry 5 in Table 2): 49%
Particle size of the precipitate (DLS, number mean) ([4]; precipitate suspended in H2O, 300 μM of 46, entry 5 conditions): ~680 nm
